Measurements taken from ChEMBL document CHEMBL6103654, “Design, Biological Characterization, and Discovery of Capromorelin Derivatives as Oral Growth Hormone Secretagogue Receptor Type 1a Agonist for the Treatment of Growth Hormone Deficiency” (J Med Chem, 2025).

Columns and labels:
[1] = test system: CHO; assay: Agonist activity at human GHSR expressed in CHO cells at maximum concentration incubated for 60 min by FLIPR assay relative to control; assay type: cell-based
[2] = molecular target: Growth hormone secretagogue receptor type 1 (Rattus norvegicus, UniProt O08725); assay: Agonist activity at rat GHSR expressed in CHO cells incubated for 60 min by FLIPR assay; assay type: functional, cell-based
Growth hormone secretagogue receptor type 1, sequence (O08725 whole entry): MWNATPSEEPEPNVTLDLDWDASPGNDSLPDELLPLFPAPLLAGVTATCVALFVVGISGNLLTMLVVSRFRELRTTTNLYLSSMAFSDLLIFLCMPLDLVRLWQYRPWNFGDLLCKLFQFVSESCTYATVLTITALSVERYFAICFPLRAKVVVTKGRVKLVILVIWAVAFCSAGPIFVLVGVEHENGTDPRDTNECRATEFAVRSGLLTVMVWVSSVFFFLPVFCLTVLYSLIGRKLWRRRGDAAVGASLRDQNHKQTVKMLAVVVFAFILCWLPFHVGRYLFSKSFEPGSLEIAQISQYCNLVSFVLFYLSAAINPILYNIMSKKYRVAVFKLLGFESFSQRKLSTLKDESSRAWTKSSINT

[3] = Agonist activity at dog GHSR expressed in CHO cells incubated for 60 min by FLIPR assay; assay type: cell-based; details: 1 h
[4] = molecular target: Growth hormone secretagogue receptor type 1 (Rattus norvegicus) (UniProt O08725); assay: Agonist activity at rat GHSR expressed in CHO cells at maximum concentration incubated for 60 min by FLIPR assay relative to control; assay type: functional, cell-based; details: filed as agonist
Growth hormone secretagogue receptor type 1 (Rattus norvegicus), sequence (O08725 whole entry): as above

[5] = test system: CHO; assay: Agonist activity at dog GHSR expressed in CHO cells at maximum concentration incubated for 60 min by FLIPR assay relative to control; assay type: cell-based; details: Canis lupus familiaris, filed as agonist
[6] = Agonist activity at human GHSR expressed in CHO cells incubated for 60 min by FLIPR assay; assay type: cell-based; details: 1 h
[7] = test system: CHO; assay: Agonist activity at monkey GHSR expressed in CHO cells at maximum concentration incubated for 60 min by FLIPR assay relative to control; assay type: cell-based; details: Macaca mulatta, filed as agonist
[8] = Agonist activity at monkey GHSR expressed in CHO cells incubated for 60 min by FLIPR assay; assay type: cell-based; details: Macaca mulatta, 1 h

| EC50 [2] [nM] | EC50 [3] [nM] | Activity [4] [%] | EC50 [6] [nM] | EC50 [8] [nM] | Structure (SMILES) | Activity ([1]; filed as agonist) [%] | Activity [5] [%] | Activity [7] [%] | Activity [1] [%] |
| --- | --- | --- | --- | --- | --- | --- | --- | --- | --- |
| 0.021 | 0.105 | 97.2 | 0.58 | 0.051 | CC(C)(N)C(=O)N[C@H](COCc1ccccc1)C(=O)N1CCC2=NN(C3CCCC3)C(=O)[C@]2(Cc2ccccc2)C1 | 121 | 117 | 110 | – |
| – | – | – | 63.7 | – | CN1N=C2C(C)(C)CN(C(=O)[C@@H](COCc3ccccc3)NC(=O)C(C)(C)N)C[C@@]2(Cc2ccccc2)C1=O | 82.2 | – | – | – |
| – | – | – | 10.4 | – | CN1N=C2CC3CCC(N3C(=O)[C@@H](COCc3ccccc3)NC(=O)C(C)(C)N)[C@@]2(Cc2ccccc2)C1=O (some centres undefined) | 104 | – | – | – |
| 0.016 | 0.071 | 112 | 1.34 | 0.044 | CC(C)(N)C(=O)N[C@H](COCc1ccccc1)C(=O)N1CCC2=NN(C(C)(C)C)C(=O)[C@]2(Cc2ccccc2)C1 | 143 | 123 | 99.3 | – |
| – | – | – | 735 | – | CC(C)(N)C(=O)N[C@H](COCc1ccccc1)C(=O)N1CCc2ccn(Cc3ccccc3)c2C1 | 47.6 | – | – | – |
| – | – | – | 2.63 | – | CC(C)(N)C(=O)N[C@H](COCc1ccccc1)C(=O)N1CCC2=NN(C3CCCCC3)C(=O)[C@]2(Cc2ccccc2)C1 | 137 | – | – | – |
| – | – | – | 29.8 | – | CN1N=C2C3(CC3)CN(C(=O)[C@@H](COCc3ccccc3)NC(=O)C(C)(C)N)C[C@@]2(Cc2ccccc2)C1=O | 82.1 | – | – | – |
| – | – | – | 160 | – | CC1N(C(=O)[C@@H](COCc2ccccc2)NC(=O)C(C)(C)N)CCC2=NN(C)C(=O)[C@@]21Cc1ccccc1 (some centres undefined) | 97.4 | – | – | – |
| 0.009 | 0.043 | 97.1 | 0.89 | 0.034 | CC(C)(N)C(=O)N[C@H](COCc1ccccc1)C(=O)N1CCC2=NN(CC3CC3)C(=O)[C@]2(Cc2ccccc2)C1 | 134 | 120 | 104 | – |
| 39.3 | 143 | 106 | > 1000 | 102 | CN1N=C2CCN(C(=O)[C@@H](COCc3ccccc3)NC(=O)C3CCNCC3)C[C@@]2(Cc2ccccc2)C1=O | – | 91.6 | 94.9 | 30.5 |
